# According to patent US6849405B2, “Translation enhancer element of the human amyloid precursor protein gene” (The Brigham and Women's Hospital, Inc., priority 1997, dated 2005):
# Tests used:
# [1] = tested on: APP protein synthesis in primary human fetal astrocytes; assay: Intracellular APP protein synthesis, [35S]-methionine pulse labeling and immunoprecipitation, primary astrocytes; type: cell-based; conditions: 0.5 ng/ml, 16 hours, 30 minute [35S]-methionine labeling
# Experimental: Primary human astrocytes were prepared by trypsinization of human fetal brain tissue by a previously described method (Das, et al., Neuron 14; 447 (1995)). Cells were seeded onto poly-L-lysine (10 μg/ml) coated plates and were grown to 70% confluence in DMEM medium, (low glucose) supplemented with 10% fetal bovine serum. In order to eliminate microglia, the cultures were treated with 5 mM H-Leu-O-methylester (Guilian, J. Neurosci. Res. 18:155 (1987)). For immunofluorescence, cells were replated at a density of 100,000 cells per 60-mm petri dish on poly-L-lysine coated glass coverslips and grown for 24 hours in 0.5 ml of medium to allow the cells to attach. The presence of glial fibrillary acidic protein (GFAP) was detected by immunofluorescent staining of formaldehyde fixed cells using a 1:10 dilution of rabbit IgG1 antibody specific for human GFAP. Primary GFAP-specific antibody was added to the coverslips for 30 minutes at room temperature in phosphate buffered saline and 10% goat serum. […] Fluorescence microscopy scored the cells used in the metabolic experiments as 95% pure astrocytes. […]
# Intracellular APP protein synthesis was determined in primary astrocytes after plating cells in equal numbers into 8 microtiter wells prior to each treatment (1×10^5 cells per well in 96 well dishes). […]
# [2] = tested on: APP synthesis in human astrocytoma (U373MG) cells; assay: APP synthesis, [35S]-methionine labeling and immunoprecipitation, astrocytoma cells; type: cell-based; conditions: 0.5 ng/ml, 16 hrs, maximal
# Experimental: Primary human astrocytes were prepared by trypsinization of human fetal brain tissue by a previously described method (Das, et al., Neuron 14; 447 (1995)). Cells were seeded onto poly-L-lysine (10 μg/ml) coated plates and were grown to 70% confluence in DMEM medium, (low glucose) supplemented with 10% fetal bovine serum. In order to eliminate microglia, the cultures were treated with 5 mM H-Leu-O-methylester (Guilian, J. Neurosci. Res. 18:155 (1987)). For immunofluorescence, cells were replated at a density of 100,000 cells per 60-mm petri dish on poly-L-lysine coated glass coverslips and grown for 24 hours in 0.5 ml of medium to allow the cells to attach. The presence of glial fibrillary acidic protein (GFAP) was detected by immunofluorescent staining of formaldehyde fixed cells using a 1:10 dilution of rabbit IgG1 antibody specific for human GFAP. Primary GFAP-specific antibody was added to the coverslips for 30 minutes at room temperature in phosphate buffered saline and 10% goat serum. The secondary antibodies used were goat anti-rabbit IgG conjugated to fluorescein isothiocyanate at a dilution of 1:100 (Boehringer). Fluorescence microscopy scored the cells used in the metabolic experiments as 95% pure astrocytes. […] The U373MG astrocytoma cell line was cultured on 100 mm uncoated dishes to 60-80% confluence in DMEM medium supplemented with 10% fetal bovine serum. […]
# APP-mRNA = assay: Northern blot of APP-mRNA, astrocytoma cells; type: cell-based, human; conditions: average of four Northern blot experiments
# Experimental: (§1) Total RNA (10 μg) was extracted from primary astrocytes and astrocytoma cells with a RNA-STAT kit (Tel-Test). RNA samples were denatured in 50% formamide/2.2 M formaldehyde/20 mM MOPS/5 mM sodium acetate/0.5 mM EDTA, pH 7.4, at 60° C. for 10 minutes, electrophoresed on 1.0% agarose-formaldehyde gels, blotted onto Hybond-N filters and immobilized by UV crosslinking and heating filters to 80° C. Filters were prehybridized for 3 hours and hybridized overnight in a solution consisting of 50% formamide, […] denatured salmon sperm DNA, 5×SSC, 0.1% sodium dodecyl sulfate and 5×Denhardt's solution. Following hybridization, filters were washed twice for a total of 1 hour in 2×SSC/0.2% sodium dodecyl sulfate at room temperature and twice each for a total of 1 hour in 0.5×SSC/0.1% sodium dodecyl sulfate at 55° C. Equal loading was verified by ethidium bromide staining, non-specific hybridization of the ACT probe to the 28S rRNA, and by standardized hybridization to the GAPDH cDNA probe as an internal standard. The APP cDNA probe corresponded to the unique internal 1 kb fragment gel purified from the 3 kb APP cDNA (Kang et al. Nature 325: 733 (1987)), the ACT cRNA probe to a PstI/SacI fragment (536-943) in the human ACT cDNA (Chandra, et al., Biochemistry 22: 5055 (1983)) and the GAPDH probe to the human GAPDH gene (Tokunaga, et al., Cancer Res. 47: 5616 (1987)).
# [3] = tested on: alpha-1 antichymotrypsin (ACT) mRNA; assay: Northern blot of ACT-mRNA, primary astrocytes; type: cell-based, human
# Experimental: as §1
Substance,increase in the synthesis of intracellular APP [1],increase in rate of APP synthesis [2],increase in steady-state levels of APP-mRNAs standardized to GAPDH-mRNA (APP-mRNA),increase in ACT-mRNA levels (densitometry) [3]
interleukin-1β [IL-1β],3 fold,4.3 fold,30%,–
interleukin-1α [IL-1α],4 fold,2.8 fold,–,greater than 10 fold
